Laboratory results: PubChem BioAssay (NCI)
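Method: 48-hour compound exposure of cells in 96-well plates, five concentrations, linear interpolation of endpoints. Here, GI50 denotes the concentration required for 50% inhibition of growth. TGI marks complete inhibition of growth.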

Key:
Assay in all cases: NCI tumour cell line growth inhibition, 48 h
MOLT-4 leukemia = test system: MOLT-4 leukemia
HCT-116 colon = test system: HCT-116 colon
M14 melanoma = test system: M14 melanoma
SW-620 colon = test system: SW-620 colon
UACC-62 melanoma = test system: UACC-62 melanoma
HCT-15 colon = test system: HCT-15 colon
KM20L2 colon = test system: KM20L2 colon
NCI-H226 lung = test system: NCI-H226 lung
IGROV1 ovarian = test system: IGROV1 ovarian
SR leukemia = test system: SR leukemia

Structure (SMILES) | TGI (MOLT-4 leukemia) [µM] | TGI (HCT-116 colon) [µM] | TGI (M14 melanoma) [µM] | TGI (SW-620 colon) [µM] | TGI (UACC-62 melanoma) [µM] | TGI (HCT-15 colon) [µM] | TGI (KM20L2 colon) [µM] | TGI (NCI-H226 lung) [µM] | TGI (IGROV1 ovarian) [µM] | GI50 (MOLT-4 leukemia) [µM] | GI50 (HCT-116 colon) [µM] | GI50 (M14 melanoma) [µM] | GI50 (SW-620 colon) [µM] | GI50 (UACC-62 melanoma) [µM] | GI50 (HCT-15 colon) [µM] | GI50 (SR leukemia) [µM] | TGI (SR leukemia) [µM] | GI50 (NCI-H226 lung) [µM] | GI50 (IGROV1 ovarian) [µM]
Nc1ncnc2c1ncn2C1OC(CSC(F)(F)F)C(O)C1O (stereo not drawn) | > 100 | > 100 | > 100 | > 100 | > 100 | > 100 | > 100 | > 100 | > 100 |  |  |  |  |  |  |  |  |  | 
Cc1ccc(C2CC(c3ccc([N+](=O)[O-])cc3)=Nc3ccccc3S2)cc1 (stereo not drawn) | 69 |  | > 100 | 46.6 | > 100 | 46.2 | 96.7 | > 100 | 87.5 |  |  |  |  |  |  |  |  |  | 
N=CCCN(CCC=N)c1ccc(/C=C2\CN(NC(=O)c3ccc(Cl)cc3)C(c3ccccc3)=N2)cc1 | > 100 | > 100 | > 100 | 30.6 | > 100 | > 100 | > 100 | > 100 | > 100 |  |  |  |  |  |  |  |  |  | 
COc1c(C2=NC(C(C)C)CO2)ccc2ccccc12 (stereo not drawn) | 50.3 |  | > 100 | > 100 | > 100 | > 100 | > 100 | > 100 | > 100 |  |  |  |  |  |  |  |  |  | 
C[C@@H](C1CCC2C3C(=CC(=O)[C@@]21C)[C@H](C)[C@]1(CCC(=O)O1)C1OC31)[C@H]1C[C@]2(C)O[C@@](C)(O1)OC2(C)C (stereo partly drawn) | > 100 | > 100 | > 100 | > 100 | > 100 | > 100 | > 100 |  | > 100 |  |  |  |  |  |  |  |  |  | 
O=C(Cn1c(=O)c(-c2ccccc2)nc2ccccc21)c1ccc(Cl)cc1 | > 100 | > 100 | > 100 | > 100 | > 100 | > 100 |  | > 100 | > 100 | > 100 | > 100 | > 100 | > 100 | > 100 | > 100 | 37.1 | > 100 | 53.5 | 63.3
Clc1ccccc1C(n1ncc2ccccc21)n1ncc2ccccc21 | > 100 | > 100 | > 100 | > 100 | > 10 | > 100 |  | > 100 | > 10 |  |  |  |  |  |  |  | > 100 |  | 
CC(N=C(N)N)C(=O)O (stereo not drawn) | > 100 | > 100 | > 100 | > 100 | > 100 | > 100 |  | > 100 | > 100 |  |  |  |  |  |  |  | > 100 |  | 
Cc1oc2nc[nH]c(=O)c2c1C(=O)/C=C/c1ccc(Cl)cc1 | 9.98 | 3.94 | 6.72 | 7.19 | 5.37 | 3.51 |  | 7.36 | 10.8 | 2.75 | 1.59 | 1.96 | 2.53 | 1.64 | 1.29 | 1.51 | 6.3 | 1.96 | 1.82
NC(=O)c1cc(-c2ccncc2)cc(-c2ccccc2)c1N | > 25 | > 25 | > 25 | > 25 | > 25 | > 25 |  | > 25 | > 25 | 20 | > 24 | > 25 | > 25 | > 24.1 | 19 | 13.5 | > 25 | 12.7 | 9.48
COc1cc(N2CCN(C(C)C)CC2)ccc1Nc1nc(Nc2cccc3ncccc23)c2cc[nH]c2n1 | > 23.2 | 7.11 | 8.04 | 14.9 | 8.53 | > 21.6 |  | > 25 | > 25 | 7.51 | 3.04 | 4.13 | 3.6 | 4.06 | 4.35 | 1.14 | > 11.1 | 4.82 | 12.1
O=C1c2ccccc2C(=O)C2C1C1C(=O)c3ccccc3C(=O)C21 (stereo not drawn) |  |  | > 100 | > 100 | > 100 | > 100 | > 100 |  | > 100 |  |  |  |  |  |  |  |  |  | 
Cc1cc(Cc2cc(C)c(O)c(C)c2)cc(C)c1O | 27.8 | 15.2 | 13.2 | > 100 | 62.6 | > 100 |  | 77.1 | > 100 | 3.82 | 4.12 | 3 | 3.03 | 5.41 | 3.49 | 2.65 | 20.2 | 19.2 | 11.3
COc1cc([N+](=O)[O-])c(S(=O)(=O)O)cc1NS(=O)(=O)c1ccc(C)cc1 | > 100 | > 100 | > 100 | > 100 | > 100 | > 100 |  | > 100 | > 100 |  |  |  |  |  |  |  | > 100 |  | 
C=CCn1c(=O)c2cnc(Nc3ccc(N4CCN(C)CC4)cc3)nc2n1-c1ccc2c(n1)[C@@](O)(CC)CC2 | 1.37 | 16 | 5.81 | > 100 | 16.4 | 13.8 |  | 15.2 | 13.6 | 0.296 | 0.415 | 0.225 | 0.525 | 0.504 | 0.949 | 0.193 | 1.38 | 1.94 | 0.212
